Measurements reported in patent publication US20240228502A1, “2-PHENYLAMINO PYRROLOPYRIMIDINES AS ACK1 INHIBITORS” (H. LEE MOFFITT CANCER CENTER AND RESEARCH INSTITUTE, INC., priority 2021, published 2024).

How the values were obtained:
ACK1 [1] = biological target: T1, ACK1 (Homo sapiens, UniProt Q07912); test: DSF = Differential Scanning Fluorimetry, thermal shift; format: binding
UKE1 = test: Cell viability, UKE1; format: cell-based
ACK1 [2] = biological target: T1, ACK1; test: ACK1 inhibition (ACK1 IC50); format: biochemical
MDA-MB-231 = test: Cell viability, MDA-MB-231; format: cell-based
[3] = Homo sapiens, MDA-MB-231, MDA-MB-231

T1 sequence (Q07912 whole entry): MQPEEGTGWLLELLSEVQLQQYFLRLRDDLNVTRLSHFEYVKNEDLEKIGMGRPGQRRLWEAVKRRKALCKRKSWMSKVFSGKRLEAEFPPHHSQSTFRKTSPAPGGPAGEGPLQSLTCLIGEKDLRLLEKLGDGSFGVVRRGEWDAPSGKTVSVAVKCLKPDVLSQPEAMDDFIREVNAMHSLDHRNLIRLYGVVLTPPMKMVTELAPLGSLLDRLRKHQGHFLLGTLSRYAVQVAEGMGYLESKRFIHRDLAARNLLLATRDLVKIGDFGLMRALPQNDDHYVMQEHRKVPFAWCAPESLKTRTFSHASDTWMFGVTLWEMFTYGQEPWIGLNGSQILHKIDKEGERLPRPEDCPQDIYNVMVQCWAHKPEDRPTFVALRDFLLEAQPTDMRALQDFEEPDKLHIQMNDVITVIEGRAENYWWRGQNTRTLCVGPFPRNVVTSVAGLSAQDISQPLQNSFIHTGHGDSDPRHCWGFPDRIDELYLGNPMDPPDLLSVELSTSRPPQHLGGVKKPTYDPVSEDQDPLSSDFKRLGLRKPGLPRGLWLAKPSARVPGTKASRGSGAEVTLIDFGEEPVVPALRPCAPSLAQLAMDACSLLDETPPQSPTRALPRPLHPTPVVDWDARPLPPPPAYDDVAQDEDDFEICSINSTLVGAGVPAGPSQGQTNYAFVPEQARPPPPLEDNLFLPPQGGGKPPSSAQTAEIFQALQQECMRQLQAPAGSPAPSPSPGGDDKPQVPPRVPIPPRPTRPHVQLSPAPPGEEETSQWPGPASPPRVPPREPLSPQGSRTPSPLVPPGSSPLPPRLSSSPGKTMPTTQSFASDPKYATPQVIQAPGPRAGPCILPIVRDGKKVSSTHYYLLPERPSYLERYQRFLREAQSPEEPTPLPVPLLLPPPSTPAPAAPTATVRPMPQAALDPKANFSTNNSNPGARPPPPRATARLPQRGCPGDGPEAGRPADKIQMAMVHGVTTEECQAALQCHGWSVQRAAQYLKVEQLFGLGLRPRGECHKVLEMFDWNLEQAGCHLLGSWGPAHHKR

DSF (ΔTm (° C.)) (ACK1 [1]) | IC50 (ACK1 [2]) | SMILES | also measured
5.3 °C | – | CC(C)S(=O)(=O)Nc1ccc(-n2ccc3cnc(Nc4ccc(N5CCN(C)CC5)c(OCCO)c4)nc32)cc1 | –
9.3 °C | – | COc1cc(N2CCN(C)CC2)c(F)cc1Nc1ncc2ccn(-c3ccc(NS(=O)(=O)C(C)C)cc3)c2n1 | –
– | < 250 nM | COc1cc(N2CCN(C)CC2)c(F)cc1Nc1ncc2ccn(CCc3ccc(F)cc3)c2n1 | –
5.6 °C | – | CN1CCN(c2ccc(Nc3ncc4ccn(-c5ccc(N6CCCS6(=O)=O)cc5)c4n3)cc2F)CC1 | –
4.5 °C | < 250 nM | CC(C)Oc1cc(Nc2ncc3ccn(CCc4ccccc4)c3n2)ccc1N1CCN(C)CC1 | EC50 (UKE1; UKE1, UKE1): 1800 nM; EC50 (MDA-MB-231; [3]): 3420 nM
5.2 °C | < 250 nM | CC(C)Oc1cc(Nc2ncc3ccn(-c4cccc(NS(=O)(=O)C(C)C)c4)c3n2)ccc1N1CCN(C)CC1 | EC50 (UKE1; UKE1, UKE1): 310 nM; EC50 (MDA-MB-231; [3]): 164 nM
– | < 500 nM | CN1CCN(c2cccc(Nc3ncc4ccn(CC5CCOCC5)c4n3)c2)CC1 | –
– | < 250 nM | COc1cc(N2CCN(C)CC2)c(F)cc1Nc1ncc2ccn(CCc3ccccc3Cl)c2n1 | –
– | < 250 nM | Cn1cc(-c2ccc(Nc3ncc4ccn(CC5CCCO5)c4n3)cc2)cn1 (stereo not drawn) | –
– | < 250 nM | COc1cc(N2CCN(C)CC2)c(F)cc1Nc1ncc2ccn(CC3CCOCC3)c2n1 | EC50 (UKE1; UKE1, UKE1): > 10000 nM; EC50 (MDA-MB-231; [3]): > 10000 nM
– | < 250 nM | Cn1cc(-c2ccc(Nc3ncc4ccn(CC5CCOCC5)c4n3)cc2)cn1 | –
– | < 250 nM | COc1cc(N2CCN(C)CC2)ccc1Nc1ncc2c(F)cn(CC3CCCO3)c2n1 (stereo not drawn) | –
– | < 250 nM | CN1CCN(c2ccc(Nc3ncc4ccn(CC5CCCO5)c4n3)c(OC3CCC3)c2)CC1 (stereo not drawn) | –
8.1 °C | – | COc1cc(N2CCN(C)CC2)ccc1Nc1ncc2ccn(-c3ccc(S(=O)(=O)NC(C)C)cc3)c2n1 | –
– | < 250 nM | CN1CCN(c2ccc(Nc3ncc4ccn(CC5CCOCC5)c4n3)c(OC3CCC3)c2)CC1 | –
– | < 250 nM | COc1cc(N2CCN(C)CC2)c(F)cc1Nc1ncc2ccn(CC3CCCO3)c2n1 (stereo not drawn) | –
6.4 °C | < 250 nM | COc1cc(Nc2ncc3ccn(-c4cccc(NS(=O)(=O)C(C)C)c4)c3n2)ccc1N1CCN(C)CC1 | EC50 (UKE1; UKE1, UKE1): 110 nM; EC50 (MDA-MB-231; [3]): 231 nM
– | < 250 nM | COc1cc(N2CCN(C)CC2)ccc1Nc1ncc2ccn(CC3CCOCC3)c2n1 | –
– | < 250 nM | CC(C)COc1cc(Nc2ncc3ccn(CC4CCCO4)c3n2)ccc1N1CCN(C)CC1 (stereo not drawn) | –
– | < 250 nM | Cc1cn(CC2CCOCC2)c2nc(Nc3ccc(N4CCN(C)CC4)c(OC(C)C)c3)ncc12 | –
– | < 250 nM | Cc1cn(CC2CCCO2)c2nc(Nc3ccc(N4CCN(C)CC4)cc3)ncc12 (stereo not drawn) | –
6.5 °C | – | COc1cc(N2CCN(C)CC2)ccc1Nc1ncc2ccn(-c3ccc(NS(=O)(=O)C(C)C)cc3)c2n1 | –
2.1 °C | < 500 nM | Cc1cn(CC2CCCO2)c2nc(Nc3ccc(-c4cnn(C)c4)c(OC(C)C)c3)ncc12 (stereo not drawn) | –
– | < 250 nM | CN1CCN(c2ccc(Nc3ncc4ccn(CC5CCOCC5)c4n3)cc2F)CC1 | –
– | < 750 nM | CC(C)Oc1cc(Nc2ncc3ccn(CCc4ccccc4)c3n2)ccc1-c1cnn(C)c1 | –

The next lines start with the compound.

SMILES | DSF (ΔTm (° C.)) (ACK1 [1]) | IC50 (ACK1 [2]) | also measured
COc1cc(N2CCN(C)CC2)c(F)cc1Nc1ncc2ccn(-c3ccc(S(=O)(=O)NC(C)C)cc3)c2n1 | 4.4 °C | – | –
COc1cc(N2CCN(C)CC2)ccc1Nc1ncc2ccn(-c3cccc(NS(=O)(=O)C(C)C)c3)c2n1 | 7.6 °C | < 250 nM | EC50 (UKE1; UKE1, UKE1): 2700 nM; EC50 (MDA-MB-231; [3]): 5150 nM
CC(C)S(=O)(=O)Nc1cccc(-n2ccc3cnc(Nc4cc(F)c(N5CCN(C)CC5)cc4Cl)nc32)c1 | – | < 250 nM | –
CC(C)S(=O)(=O)Nc1cccc(-n2ccc3cnc(Nc4ccc(N5CCN(C)CC5)c(F)c4)nc32)c1 | 4.5 °C | < 250 nM | EC50 (UKE1; UKE1, UKE1): 74 nM; EC50 (MDA-MB-231; [3]): 462 nM
CN1CCN(c2cc(Cl)c(Nc3ncc4ccn(CC5CCCO5)c4n3)cc2F)CC1 (stereo not drawn) | – | < 250 nM | –
CN1CCN(c2ccc(Nc3ncc4ccn(-c5cccc(N6CCCS6(=O)=O)c5)c4n3)cc2F)CC1 | – | < 250 nM | EC50 (UKE1; UKE1, UKE1): 55 nM; EC50 (MDA-MB-231; [3]): 840 nM
CN1CCN(c2cc(Cl)c(Nc3ncc4ccn(-c5cccc(N6CCCCS6(=O)=O)c5)c4n3)cc2F)CC1 | – | < 250 nM | –
CN1CCN(c2ccc(Nc3ncc4ccn(CC5CCCO5)c4n3)cc2OC2CCCC2)CC1 (stereo not drawn) | – | < 250 nM | EC50 (UKE1; UKE1, UKE1): 2100 nM; EC50 (MDA-MB-231; [3]): 2100 nM; EC50 (MDA-MB-231; MDA-MB-231): 1050 nM
Cc1cc(N2CCN(C)CC2)c(F)cc1Nc1ncc2ccn(-c3cccc(N4CCCCS4(=O)=O)c3)c2n1 | 6.2 °C | – | –
CC(C)S(=O)(=O)Nc1cccc(-n2ccc3cnc(Nc4ccc(N5CCN(C)CC5)c(OCCO)c4)nc32)c1 | 6.4 °C | < 250 nM | EC50 (UKE1; UKE1, UKE1): 390 nM; EC50 (MDA-MB-231; [3]): 151 nM
CC(C)Oc1cc(Nc2ncc3ccn(C[C@H]4CCCO4)c3n2)ccc1N1CCN(C)CC1 | 5.3 °C | < 250 nM | EC50 (UKE1; UKE1, UKE1): 1000 nM; EC50 (MDA-MB-231; [3]): 1100 nM
COc1cc(N2CCN(C)CC2)ccc1Nc1ncc2ccn(CC3CCCO3)c2n1 (stereo not drawn) | – | < 250 nM | –
CN1CCN(c2ccc(Nc3ncc4ccn(CC5CCCO5)c4n3)cc2)CC1 (stereo not drawn) | – | < 250 nM | –
COc1cc(N2CCN(C)CC2)c(F)cc1Nc1ncc2ccn(-c3cccc(N4CCCS4(=O)=O)c3)c2n1 | – | < 250 nM | –
Cc1cn(CC2CCOCC2)c2nc(Nc3ccc(-c4cnn(C)c4)c(OC(C)C)c3)ncc12 | – | < 250 nM | –
COc1cc(Nc2ncc3ccn(-c4cccc(NS(=O)(=O)C(C)C)c4)c3n2)ccc1-c1cnn(C)c1 | – | < 250 nM | –
Cc1cc(N2CCN(C)CC2)c(F)cc1Nc1ncc2ccn(-c3ccc(NS(=O)(=O)C(C)C)cc3)c2n1 | 7.3 °C | – | –
COc1cc(Nc2ncc3ccn(CC4CCCO4)c3n2)ccc1-c1cnn(C)c1 (stereo not drawn) | – | < 250 nM | –
Cc1cn(CC2CCCO2)c2nc(Nc3ccc(N4CCN(C)CC4)c(OC(C)C)c3)ncc12 (stereo not drawn) | – | < 250 nM | –
COc1c(Nc2ncc3ccn(CC4CCOCC4)c3n2)cc(F)c(N2CCN(C)CC2)c1F | – | > 1000 nM | –
CC(C)Oc1cc(Nc2ncc3ccn(CC4CCCO4)c3n2)ccc1N1CCN(C)CC1 (stereo not drawn) | – | < 250 nM | EC50 (UKE1; UKE1, UKE1): 1100 nM; EC50 (MDA-MB-231; [3]): 2000 nM

SMILES | DSF (ΔTm (° C.)) (ACK1 [1]) | IC50 (ACK1 [2]) | also measured
COc1ccccc1CCn1ccc2cnc(Nc3cc(F)c(N4CCN(C)CC4)cc3OC)nc21 | – | < 250 nM | –
CN1CCN(c2ccc(Nc3ncc4ccn(CC5CCCO5)c4n3)cc2OC2CCC2)CC1 (stereo not drawn) | – | < 250 nM | EC50 (UKE1; UKE1): 1500 nM; EC50 (UKE1; UKE1, UKE1): 1720 nM; EC50 (MDA-MB-231; [3]): 1500 nM; EC50 (MDA-MB-231; MDA-MB-231): 1710 nM
COc1c(Nc2ncc3ccn(-c4ccc(NS(=O)(=O)C(C)C)cc4)c3n2)cc(F)c(N2CCN(C)CC2)c1F | – | < 250 nM | –
COc1cc(N2CCN(C)CC2)c(F)cc1Nc1ncc2ccn(-c3cccc(NS(=O)(=O)C(C)C)c3)c2n1 | 4.8 °C | < 250 nM | EC50 (UKE1; UKE1, UKE1): 940 nM; EC50 (MDA-MB-231; [3]): 1580 nM
Cc1cc(N2CCN(C)CC2)c(F)cc1Nc1ncc2ccn(-c3ccc(S(=O)(=O)NC(C)C)cc3)c2n1 | 7.7 °C | – | –
CN1CCN(c2ccc(Nc3ncc4ccn(C[C@H]5CCCO5)c4n3)cc2F)CC1 | – | < 250 nM | –
CN1CCN(c2ccc(Nc3ncc4ccn(CC5CCCO5)c4n3)cc2OCCO)CC1 (stereo not drawn) | 5.3 °C | < 250 nM | EC50 (UKE1; UKE1): 710 nM; EC50 (UKE1; UKE1, UKE1): 1280 nM; EC50 (MDA-MB-231; [3]): 720 nM; EC50 (MDA-MB-231; MDA-MB-231): 1280 nM
COc1cc(N2CCN(C)CC2)c(F)cc1Nc1ncc2ccn(-c3ccc(N4CCCS4(=O)=O)cc3)c2n1 | 5.2 °C | < 250 nM | EC50 (UKE1; UKE1, UKE1): 1400 nM; EC50 (MDA-MB-231; [3]): 3940 nM
COc1cc(N2CCN(C)CC2)c(F)cc1Nc1ncc2ccn(-c3cccc(N4CCCCS4(=O)=O)c3)c2n1 | – | < 250 nM | EC50 (UKE1; UKE1, UKE1): 1300 nM; EC50 (MDA-MB-231; [3]): 3400 nM
COc1cc(N2CCN(C)CC2)c(F)cc1Nc1ncc2ccn(CCc3ccccc3)c2n1 | – | < 250 nM | –
CC(C)S(=O)(=O)Nc1ccc(-n2ccc3cnc(Nc4ccc(N5CCN(C)CC5)c(F)c4)nc32)cc1 | 6.1 °C | – | –
CN1CCN(c2cc(Cl)c(Nc3ncc4ccn(CC5CCOCC5)c4n3)cc2F)CC1 | 6.4 °C | < 250 nM | –
CC(C)Oc1cc(Nc2ncc3ccn(-c4cccc(NS(=O)(=O)C(C)C)c4)c3n2)ccc1-c1cnn(C)c1 | – | < 250 nM | –
CN1CCN(c2cccc(Nc3ncc4ccn(CC5CCCO5)c4n3)c2)CC1 (stereo not drawn) | – | < 250 nM | –
CC(C)Oc1cc(Nc2ncc3ccn(CC4CCOCC4)c3n2)ccc1N1CCN(C)CC1 | – | < 250 nM | EC50 (UKE1; UKE1, UKE1): 3100 nM; EC50 (MDA-MB-231; [3]): 3500 nM
COc1cc(N2CCN(C)CC2)c(F)cc1Nc1ncc2ccn(C[C@H]3CCCO3)c2n1 | – | < 250 nM | –
CC(C)Oc1cc(Nc2ncc3c(F)cn(CC4CCCO4)c3n2)ccc1C1CCN(C)CC1 (stereo not drawn) | – | < 250 nM | –
COc1cc(Nc2ncc3c(C)cn(CC4CCOCC4)c3n2)ccc1-c1cnn(C)c1 | – | < 250 nM | –
CN1CCN(c2ccc(Nc3ncc4ccn(CC5CCOCC5)c4n3)cc2)CC1 | – | < 250 nM | –
CC(C)Oc1cc(N2CCN(C)CC2)ccc1Nc1ncc2ccn(CCc3ccccc3)c2n1 | – | < 1000 nM | –
